Measurements as given in PubChem BioAssay AID1963851 (Molecular Pharmacology Branch, DTP, NCI, 2024).
“And” between values parts separate entries of the source, which are not always exact repeats. Identical values can stand only once.

Tested on: 188146-221-R-J1-PDC complex spheroid viability
Assay: Anticancer human tumor 188146-221-R-J1-PDC patient-derived colon adenocarcinoma cell line growth inhibition [POLQ]
Conditions: for viability, T/C: stronger effect = lower value
Experimental: Multicellular complex tumor spheroid response to Polymerase (POL) inhibitors (novobiocin, ART-558, RP6685) in combination with a variety of drugs and investigational agents in selected tumor cell lines
The POL inhibitors (novobiocin, ART-558, and RP6685) were evaluated both individually and in combination with standard of care and investigational anticancer small molecules within a complex spheroid model of solid tumors. . Complex spheroids include a stromal component modeled by human endothelial cells (HUVEC) and fibroblasts modeled by human mesenchymal stem cells (MSCs). The concentration ranges selected for each drug and investigational agent were based upon clinically achievable concentrations if the clinical Cmax of the agent was known.
Compounds. The drugs and investigational agents: novobiocin (NSC847541), ART-558 (NSC835418), RP-6685 (NSC848927), peposertib (NSC802822), ceralasertib (NSC780249), elimusertib (NSC800525), camonsertib (NSC841442), AZD-1390 (NSC803789), olaparib (NSC753686), talazoparib (NSC767125), rucaparib (NSC756644), sotorasib (NSC818433), MRTX-1133 (NSC836407), SN-38 (NSC673596), topotecan (NSC609699), epotoside (NSC141540), doxorubicin (NSC123127), gemcitabine (NSC613327), 5-fluorouracil (NSC19893), paclitaxel (NSC125973), vemurafenib (NSC761431), MSA-2 (NSC828583), SN-011 (NSC837082), adavosertib (NSC754352), prexasertib (NSC758257), carboplatin (NSC241240) and oxaliplatin (NSC266046), were obtained from the National Cancer Institute (NCI) Developmental Therapeutics Program Chemical Repository (21). The FDA-approved anticancer drug set is available from the Developmental Therapeutics Program at https://dtp.cancer.gov/organization/dscb/obtaining/. […] The stock solutions were prepared in dimethyl sulfoxide (DMSO, Sigma-Aldrich, St. Louis, MO, cat. D2650), except for the platinum compounds which were prepared in saline (Quality Biological, Gaithersburg, MD, cat. 114-055-101), at 800-fold the tested concentration and stored at -70 degrees C prior to their use. All drugs and investigational agents were tested over a range starting from a high concentration at or near the clinical Cmax and decreasing in half-log increments. If the clinical Cmax for an agent had not been determined, the highest concentration tested was 10 microM, except for SN-38, which was tested at a high concentration of 1 microM.
Cell Culture. All cells were maintained in an incubator at 37 degrees C and 5% CO2 with 95% humidity. The PDC lines were cultured according to standard operating procedures established by the NCI PDMR (https://pdmr.cancer.gov). Table 3 of the manuscript, lists the cell lines along with the number of the three cell types plated to form the mct-spheroids and media for tumor cell growth. After thawing, all PDC lines, except 997537-175-T-J1-PDC and 415267-285-R-J2-PDC, were cultured in Matrigel-coated flasks prepared with a working solution of 1X Ham's F-12 nutrient mix, without supplementation (Thermo Fisher Scientific, cat. 11765054), 100 U/mL penicillin-streptomycin (Thermo Fisher Scientific, cat. 15140122), and 2.5% Matrigel (Corning Inc., Corning, NY, cat. 354248) for the first three passages. The two PDC lines 997537-175-T-J1-PDC and 415267-285-R-J2-PDC were cultured on uncoated flasks. The 857933-349-R-J2-PDC line was cultured in 6C/Colon 1B media containing advanced DMEM/F-12 (Thermo Fisher Scientific, cat. 12634028), 10 mM HEPES (Thermo Fisher Scientific, cat. 15630080), 1X GlutaMAX supplement (Thermo Fisher Scientific, cat. 35050061), 0.1 mg/mL primocin (InvivoGen, San Diego, CA, cat. ant-pm-2), 10% defined fetal bovine serum, heat inactivated (HyClone Laboratories Inc., Logan, UT, cat. SH30070.03HI), 50% L-WRN conditioned media (ATCC, cat. CRL-3276), 1.25 mM N-Acetyl-L-cysteine (Sigma-Aldrich, cat. A9165), 10 mM nicotinamide (Sigma-Aldrich, cat. N0636), 1X B-27 supplement (Thermo Fisher Scientific, cat. 17504044), 1X N-2 supplement (Thermo Fisher Scientific, cat. […]

[1] = curve of first compound, second compound 0.0316 µM
[2] = curve of first compound, second compound 0.1 µM
[3] = curve of first compound, second compound 0.316 µM
[4] = curve of first compound, second compound 1 µM
[5] = curve of first compound, second compound 3.16 µM
[6] = curve of first compound, second compound 10 µM
[7] = second compound 0.0316 µM, first compound 0.0316 µM
[8] = second compound 0.0316 µM, first compound 0.1 µM
[9] = second compound 0.0316 µM, first compound 0.316 µM
[10] = second compound 0.0316 µM, first compound 1 µM
[11] = second compound 0.0316 µM, first compound 3.16 µM
[12] = second compound 0.0316 µM, first compound 10 µM
[13] = second compound 0.1 µM, first compound 0.0316 µM
[14] = second compound 0.1 µM, first compound 0.1 µM
[15] = second compound 0.1 µM, first compound 0.316 µM
[16] = second compound 0.1 µM, first compound 1 µM
[17] = second compound 0.1 µM, first compound 3.16 µM
[18] = second compound 0.1 µM, first compound 10 µM
[19] = second compound 0.316 µM, first compound 0.0316 µM
[20] = second compound 0.316 µM, first compound 0.1 µM
[21] = second compound 0.316 µM, first compound 0.316 µM
[22] = second compound 0.316 µM, first compound 1 µM
[23] = second compound 0.316 µM, first compound 3.16 µM
[24] = second compound 0.316 µM, first compound 10 µM
[25] = second compound 1 µM, first compound 0.0316 µM
[26] = second compound 1 µM, first compound 0.1 µM
[27] = second compound 1 µM, first compound 0.316 µM
[28] = second compound 1 µM, first compound 1 µM
[29] = second compound 1 µM, first compound 3.16 µM
[30] = second compound 1 µM, first compound 10 µM
[31] = second compound 3.16 µM, first compound 0.0316 µM
[32] = second compound 3.16 µM, first compound 0.1 µM
[33] = second compound 3.16 µM, first compound 0.316 µM
[34] = second compound 3.16 µM, first compound 1 µM
[35] = second compound 3.16 µM, first compound 3.16 µM
[36] = second compound 3.16 µM, first compound 10 µM
[37] = second compound 10 µM, first compound 0.0316 µM
[38] = second compound 10 µM, first compound 0.1 µM
[39] = second compound 10 µM, first compound 0.316 µM
[40] = second compound 10 µM, first compound 1 µM
[41] = second compound 10 µM, first compound 3.16 µM
[42] = second compound 10 µM, first compound 10 µM
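Note: spheroids exposed to compounds for seven days.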
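Throughout, for viability, T/C: 100% = DMSO vehicle control viability.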

## CC1COCCN1c1cc(C2(S(C)(=N)=O)CC2)nc(-c2ccnc3[nH]ccc23)n1 (stereo not drawn) + COC1C(OC(N)=O)C(O)C(Oc2ccc3c(O)c(NC(=O)c4ccc(O)c(CC=C(C)C)c4)c(=O)oc3c2C)OC1(C)C
[1]
  IC50: 4200 nM
[2]
  IC50: 4040 nM
[3]
  IC50: 4050 nM
[4]
  IC50: 4530 nM
[5]
  IC50: 3450 nM
[6]
  IC50: 3160 nM
[7]
  viability, T/C: 102%
[8]
  viability, T/C: 95.8%
[9]
  viability, T/C: 98.7%
[10]
  viability, T/C: 94.2%
[11]
  viability, T/C: 58.6%
[12]
  viability, T/C: 23.6%
[13]
  viability, T/C: 114%
[14]
  viability, T/C: 100%
[15]
  viability, T/C: 90.5%
[16]
  viability, T/C: 72.5%
[17]
  viability, T/C: 62.2%
[18]
  viability, T/C: 26.8%
[19]
  viability, T/C: 96.2%
[20]
  viability, T/C: 97.3%
[21]
  viability, T/C: 94.7%
[22]
  viability, T/C: 84.8%
[23]
  viability, T/C: 56.4%
[24]
  viability, T/C: 27%
[25]
  viability, T/C: 97.1%
[26]
  viability, T/C: 104%
[27]
  viability, T/C: 88.6%
[28]
  viability, T/C: 87.1%
[29]
  viability, T/C: 61.2%
[30]
  viability, T/C: 23.9%
[31]
  viability, T/C: 101%
[32]
  viability, T/C: 100%
[33]
  viability, T/C: 84.2%
[34]
  viability, T/C: 69.4%
[35]
  viability, T/C: 54%
[36]
  viability, T/C: 26.8%
[37]
  viability, T/C: 102%
[38]
  viability, T/C: 88.8%
[39]
  viability, T/C: 103%
[40]
  viability, T/C: 74.5%
[41]
  viability, T/C: 51.9%
[42]
  viability, T/C: 24%

## O=c1[nH]cc(F)c(=O)[nH]1 + Nc1ccc(C#CCN(C(=O)Cc2ncc(C(F)(F)F)cc2C(F)(F)F)c2ccc(F)cc2)nn1
[1]
  IC50: 2920 nM
[2]
  IC50: 2730 nM
[3]
  IC50: 2140 nM
[4]
  IC50: 3660 nM
[5]
  IC50: 1620 nM
[6]
  IC50: 1990 nM
[7]
  viability, T/C: 116%
[8]
  viability, T/C: 111%
[9]
  viability, T/C: 83.8%
[10]
  viability, T/C: 54.1%
[11]
  viability, T/C: 46.6%
[12]
  viability, T/C: 52.4%
[13]
  viability, T/C: 121%
[14]
  viability, T/C: 105%
[15]
  viability, T/C: 72.6%
[16]
  viability, T/C: 58%
[17]
  viability, T/C: 50.3%
[18]
  viability, T/C: 45.5%
[19]
  viability, T/C: 113%
[20]
  viability, T/C: 103%
[21]
  viability, T/C: 79.2%
[22]
  viability, T/C: 55.2%
[23]
  viability, T/C: 48.9%
[24]
  viability, T/C: 43.2%
[25]
  viability, T/C: 100%
[26]
  viability, T/C: 82.4%
[27]
  viability, T/C: 74.5%
[28]
  viability, T/C: 58.6%
[29]
  viability, T/C: 50.1%
[30]
  viability, T/C: 44.9%
[31]
  viability, T/C: 102%
[32]
  viability, T/C: 91.7%
[33]
  viability, T/C: 74%
[34]
  viability, T/C: 49.9%
[35]
  viability, T/C: 46.6%
[36]
  viability, T/C: 47.5%
[37]
  viability, T/C: 123%
[38]
  viability, T/C: 112%
[39]
  viability, T/C: 85.7%
[40]
  viability, T/C: 54.6%
[41]
  viability, T/C: 47.1%
[42]
  viability, T/C: 43.7%

## COc1cccc(OCCCN)c1-c1cc(Nc2cnc(C#N)cn2)n[nH]1
Compound 0.00316 µM
  viability, T/C: 97.7% and 99% and 88.2%
Compound 0.01 µM
  viability, T/C: 88.1% and 99.5% and 101%
Compound 0.0316 µM
  viability, T/C: 42.7% and 75.8% and 72.2%
Compound 0.1 µM
  viability, T/C: 20.7% and 37.1% and 32.8%
Compound 0.316 µM
  viability, T/C: 12.7% and 16.1% and 16.8%
Compound 1 µM
  viability, T/C: 9.17% and 13% (2×)
Curve of compound
  IC50: 27.2 nM and 68 nM and 61.2 nM

## O=C(Nc1ccc(O)c(NS(=O)(=O)c2ccc(F)cc2)c1)c1ccc(-c2ccccc2)cc1
Compound 0.0316 µM
  viability, T/C: 93.2% and 100% and 110%
Compound 0.1 µM
  viability, T/C: 98.5% and 107% and 104%
Compound 0.316 µM
  viability, T/C: 89.5% and 95.1% and 93.5%
Compound 1 µM
  viability, T/C: 93.2% and 103% and 118%
Compound 3.16 µM
  viability, T/C: 99.4% and 81.3% and 100%
Compound 10 µM
  viability, T/C: 59.1% and 73.5% and 78.4%
Curve of compound
  IC50: > 10000 nM
